In patent publication US7935532B2, “DWF4 polynucleotides, polypeptides and uses thereof” (Arizona Board of Regents for and on behalf of Arizona State …, priority 1999, dated 2011):

Assays:
Assay type in all cases: in vivo, Arabidopsis thaliana
[1] = test system: wild-type and dwf4 seedlings; assay: Auxin response of seedlings on vertically oriented agar plates with 2,4-D
Procedure: (§1) Gibberellic acid (GA) response was assayed on plants grown individually in 5.7-cm pots. Once inflorescences reached 1 to 2 mm in height, they were sprayed weekly with 1 mM GA3 (Sigma). Control plants were sprayed with water. One week after the third spraying, plants were collected, and the length of the main stem was measured between the top of the rosette and the base of the most distal pedicel; 13 to 18 plants of each line were measured per treatment. Auxin response was tested by growing seedlings for 10 days under 16 hr of light on vertically oriented agar plates containing various concentrations of 2,4-D (Gibco, Grand Island, N.Y.). Genetic interaction with the hy2 mutation was tested by growing seedlings under continuous light for 7 days. Brassinolide (BL) response was determined in liquid culture, as described by Clouse et al. (1993) supra, except that three or four seedlings were grown in each well of a 24-well culture plate for 7 days. Measurements were taken for 10 to 20 seedlings for each genotype and condition, under a dissection microscope fitted with an ocular micrometer.
Auxin can also stimulate cell elongation. This effect is especially visible in young seedlings (Klee and Estelle, supra). […] Higher concentrations of auxin were inhibitory for both wild-type and dwf4 seedlings, and lower concentrations had no effect. In view of the inhibition of root growth, it is clear that dwf4 is not auxin resistant; rather, its elongation response is compromised.

[2] = test system: dwf4 seedlings; assay: Feeding of BR biosynthetic intermediates to dwf4 seedlings in liquid media (rescue, dose-response); conditions: for rescue of the light-grown dwf4 phenotype: liquid media; for response of dwf4 seedlings in dose-response experiment in the dark: dark-grown, 6-oxoCN 10^−8 to 3×10^−6 M, 6-deoxoCT high concentrations
Procedure: In view of the results described above, we hypothesized that DWF4 mediates one or more of several steroid hydroxylation steps in the BR biosynthetic pathway. To test this, dwf4 was grown on all of the available biosynthetic intermediates in the BR biosynthetic pathways and examined to ascertain which intermediates could rescue the dwarf phenotype. In addition to the intermediates belonging to the early C-6 oxidation and late C-6 oxidation pathways (Choi et al. (1997), supra), 22α-hydroxycampesterol (22-OHCR), 6α-hydroxycastasterone (6-OHCT) (Takatsuto et al. (1997) J. Chem. Res. (synop.) 11:418-419), and […] (S. Takatsuto, T. Watanabe, T. Noguchi, and S. Fujioka, unpublished data) were synthesized and tested.
Germinated seedlings were transferred to media supplemented with one of the intermediates or BL to pinpoint the step catalyzed by DWF4. […] In addition, the rescued seedlings were less green than the dwarfs. These experiments were conducted in liquid media. Feeding experiments performed in the dark yielded similar results.
However, on CT the overall morphology of dwf4 was essentially rescued to wild-type phenotype at 3×10^−7 M and higher, whereas with 6-deoxoCT, rescue occurred with as little as 10^−7 M and may have even been inhibitory at higher concentrations. Of particular interest is the more dramatic response of the epicotyls versus the smaller response of the hypocotyls to CT. This same phenomenon was true for seedlings treated with >10^−7 M 6-deoxoCT.
A higher concentration of CT for dark-grown seedlings, compared with light-grown seedlings, 3×10^−6 M (FIG. 5B), was required to convert the hypocotyl to a length similar to that of the wild type.

[3] = test system: 6-week-old dwf4 plants; assay: Treatment of soil-grown mature dwf4 plants with BR intermediates and BL (pedicel elongation); conditions: 10^−6 M, compared with CT and TE at 10^−5 M
Procedure: To determine whether the results of the seedling feeding experiments could be applicable to soil-grown mature plants, 6-week-old dwf4 plants were treated with BR intermediates and BL. Concentrations of applied intermediates were adjusted empirically to optimize responses. Consistent with the results obtained from the seedlings experiments, only 22α-hydroxylated compounds can rescue the dwf4 phenotype. The elongation response was only observed in the young tissues of the inflorescence, regardless of whether the BRs were applied locally or sprayed over the entire plant. In contrast to the striking elongation of the peduncles and pedicels, fertility was not restored by BR treatment. The sterility in dwf4 is hypothesized to be mechanical, which means that the filaments are shorter than the carpels such that the pollen is shed onto the ovary walls rather than onto the stigmatic surface. In fact, if dwf4 plants are hand pollinated using […], fertility increases.

[4] = test system: wild-type and dwf4 plants; assay: GA response of soil-grown plants sprayed with GA (inflorescence stem length)
Procedure: as §1
Of the endogenous (hormonal) signals that might be deficient in dwarf plants, an obvious candidate is GA, because gibberellin-deficient mutants are shorter in stature than are the wild-type plants (Koommeef and Van der Veen, supra). […]

[5] = test system: DWF4 promoter (D4GL); assay: DWF4-promoter:GUS (D4GL) activity in seedlings supplied with hormone
From the text: Two promoter constructs were used for the DWF4-promoter:GUS(D4G) analysis. For promoter fusions, polymerase chain reaction (PCR) products spanning 1.1 kb DNA upstream of the translation initiation site were amplified using primers D4XLINIT (5′-[…]-3′) (SEQ ID NO:16) and a T7 primer (5′[…]-3′) (SEQ ID NO:17). For template for PCR, a DWF4 genomic clone subcloned into pBluescript SK-vector (Stratagene La Jolla, Calif.) was used as described herein. The PCR products were restricted with SalI and BamHI, and ligated into the same restriction site of a promoterless GUS vectors pBI101; this 1.1 kb promoter:GUS construct as named pD4GL. For the pD4GS construct, pD4GL was digested with HindIII, the small restriction fragment was removed, and the remaining vector with the partial promoter was self-ligated. The constructs were introduced into Agrobacterium strain GV3101 through electroporation.
For histochemical analysis of the D4GL plants, seeds were plated on M&S plates and grown in the dark and light. Seedlings were harvested at the designated dates and stained overnight using a substrate mixture (0.1 M NaPO4, pH 7, 10 mM EDTA, 0.5 mM K3Fe(CN)6, 0.5 mM K4FE(CN)6, 1 mM X-glucuronide, and 0.1% Triton X-100). Seedlings cleared with 90% ethanol were rehydrated before taking pictures using a Stemi SV11 dissecting microscope (Zeiss, N.Y.).
Since DWF4 is proposed to be a key enzyme in the BR biosynthetic pathway, DWF4 transcription could be regulated by an end-product feedback mechanism. To this end, D4GL was expressed in different genetic backgrounds including two BR deficient mutants, dwf7-1 and dwf8-1, and a BR-enriched line, AOD4. GUS activity was increased in dwf7-1 and dwf8-1 but decreased in AOD4 lines. DWF7 is a C-5 desaturase that acts in the sterol specific part of the pathway. D4GL activity in dwf7-1 was found in the same tissues as wild type but, dwf8-1 is defective in a BR biosynthetic step downstream of CPD. […]

[6] = test system: wild-type and dwf4 seedlings; assay: GA response of seedlings germinated on GA (hypocotyl elongation)
Procedure: The conditions used for plant growth were essentially as described previously (Feldmann (1991) Plant J. 1:71-82; Forsthoefel et al. (1992) Aust. J. Plant Physiol. 19:353-366), except that agar-solidified medium contained 0.5% sucrose. Seedlings up to 2 weeks of age ([…] of age for dark-growth experiments) were grown on 0.9% agar-solidified medium containing 1×Murashige and Skoog 1962 salts (Murashige, T., and Skoog, F. (1962) Physiol. Plant, 15:473-497) and 0.5% sucrose (w/v) and cold treated (4° C.) for 2 days in the dark before transfer to the light (24 hr light; 80 μmol M^−2 sec^−1); older plants were grown in potting soil. The plates were sealed with Parafilm (American National Can Co., Chicago, Ill.) for the entire experiment. For nucleic acid extraction, genetic analysis, and other experiments in which mature plants were required, seeds were sown on Metromix 350 (Grace Sierra, Milpitas, Calif.) presoaked with distilled water. The pots were covered with plastic wrap and cold treated (4° C.) for two days before transfer to a growth chamber (16:8, light [240 μmol m^−2 sec^−1]:dark; 22 and 21° C., respectively, and 75 to 90% humidity). The plastic wrap was removed 5 days after germination, and the pots were subirrigated in distilled water as required. Germination of seeds for dark growth experiments was induced by overnight exposure of the seeds to light immediately after removing the plates from incubation at 4° C. The dwf4-1 and dwf4-2 mutations were in the Arabidopsis thaliana ecotype Wassilewskija (Ws-2) background; the dwf4-3 and dwf4-4 mutations were in the Enkheim (En-2) background.
Of the endogenous (hormonal) signals that might be deficient in dwarf plants, an obvious candidate is GA, because gibberellin-deficient mutants are shorter in stature than are the wild-type plants (Koommeef and Van der Veen, supra). Our results, however, indicate that dwf4 is not defective in the synthesis of gibberellins. […] Similar results were obtained when soil-grown plants were sprayed with 1 mM GA once inflorescences first became visible: dwf4 inflorescence stems elongated by only 28% above the untreated controls, whereas those of the wild type elongated by 45% above the untreated controls. Mutants that owe their reduced stature to decreased levels of endogenous gibberellins can be fully rescued by added hormone (Koornneef and Van der Veen, supra; Talon et al., supra). In addition, dwf4 seeds germinate in the absence of exogenously supplied GA.

[7] = test system: wild-type seedlings; assay: Hypocotyl and root length of wild-type seedlings supplemented with epi-BL; conditions: light-grown wild type, 10^−6 M epi-BL, 12 days
Procedure: To compare the phenotypic effects resulting form the endogenous and exogenous addition of BRs, the length of roots and hypocotyls of 16 seedlings of dwf4, wild-type controls, wild-type plants supplemented with 10^−6 M epi-BL, and two independent AOD4 lines, grown for 12 days in the light or dark was measured. […] These characteristic responses of wild-type plants to epi-BL treatment were similar in two independent AOD4 lines. […] Inhibition of root growth was also obvious in the AOD4 lines. Furthermore the increased hypocotyl length and reduced root length were consistently observed in 15 independent transformants of tobacco (TOD4) harboring a pOD4 construct.

[8] = light-grown seedlings, dose-response

## O=C(O)COc1ccc(Cl)cc1Cl [2,4-D]
[1]; concentrations lower than 10^−8 M
  hypocotyl elongation: no effect
[1]; wild-type and dwf4 seedlings, 10 days, all concentrations assayed
  root growth: inhibition of root growth was evident
[1]; wild-type and dwf4 seedlings, concentrations higher than 10^−8 M
  hypocotyl elongation: inhibitory

## CC(C)[C@H](C)[C@@H](O)[C@H](O)[C@@H](C)[C@H]1CC[C@H]2[C@@H]3C[C@H](O)[C@H]4C[C@H](O)[C@H](O)C[C@]4(C)[C@H]3CC[C@]12C [6-OHCT, 6α-hydroxycastasterone]
[2]; light-grown seedlings
  rescue of the light-grown dwf4 phenotype: rescued

## CC(C)[C@H](C)C[C@H](O)[C@@H](C)[C@H]1CC[C@H]2[C@@H]3CC[C@H]4C[C@@H](O)CC[C@]4(C)[C@H]3CC[C@]12C [6-deoxoCT, 6-deoxocathasterone]
[2]
  response of dwf4 seedlings in dose-response experiment in the dark: caused dramatic elongation but were less effective at rescuing dwf4 hypocotyls to wild-type phenotype
[2]; [8]
  concentration at which dwf4 overall morphology is rescued to wild-type phenotype: ≥ 10^−7 M
  concentrations at which seedlings displayed inhibition in hypocotyl and root elongation and cotyledon and leaf expansion: > 10^−7 M
[2]; light-grown seedlings
  rescue of the light-grown dwf4 phenotype: rescued
[3]
  sensitivity of dwf4 pedicels: more sensitive

## CC(C)[C@H](C)[C@@H](O)[C@H](O)[C@@H](C)[C@H]1CC[C@H]2[C@@H]3CC[C@H]4C[C@@H](O)CC[C@]4(C)[C@H]3CC[C@]12C [6-deoxoTE, 6-deoxoteasterone]
[3]
  sensitivity of dwf4 pedicels: more sensitive

## CC(C)[C@H](C)CC[C@@H](C)[C@H]1CC[C@H]2[C@@H]3CC(=O)[C@H]4C[C@@H](O)CC[C@]4(C)[C@H]3CC[C@]12C [6-oxoCN, 6-oxocampestanol]
[2]
  response of dwf4 seedlings in dose-response experiment in the dark: failed to respond
[2]; light-grown, even at high concentrations (3×10^−6 M)
  response of dwf4 seedlings in dose-response test: failed to respond

## C=C1C[C@]23C[C@@]1(O)CC[C@H]2[C@@]12C=C[C@H](O)[C@@](C)(C(=O)O1)[C@H]2[C@@H]3C(=O)O [GA, Gibberellic acid]
[4]; dwf4, soil-grown plants sprayed with 1 mM GA
  inflorescence stem elongation above the untreated controls: 28%
[4]; wild type, soil-grown plants sprayed with 1 mM GA
  inflorescence stem elongation above the untreated controls: 45%
[5]; 10^−4 M GA3
  GUS staining in shoots and roots of D4GL plants: did not display an increase in GUS staining
  hypocotyl length of D4GL plants: longer than controls
[6]; dwf4 seedlings germinated on 10^−5 M GA
  hypocotyl elongation response to GA: responded minimally, if at all
[6]; dwf4 seedlings, 10^−4 M compared with 10^−5 M GA
  hypocotyl elongation response to GA: essentially saturated for elongation
[6]; wild-type seedlings at 10^−4 M GA
  hypocotyl elongation response to GA: elongated slightly more than at 10^−5 M
[6]; wild-type seedlings germinated on 10^−5 M GA
  hypocotyl elongation response to GA: demonstrated an elongation response

## CC(C)[C@@H](C)[C@@H](O)[C@H](O)[C@@H](C)[C@H]1CC[C@H]2[C@@H]3COC(=O)[C@H]4C[C@H](O)[C@H](O)C[C@]4(C)[C@H]3CC[C@]12C [epi-BL, 24-epibrassinolide]
[5]; 10^−6 M epi-BL, tissues normally stained in untreated controls
  GUS activity of D4GL plants: greatly reduced GUS activity
[7]
  hypocotyl length: elongated hypocotyls
  root length: shorter than untreated control plants
